What all share (assay type): cell-based
In assay [1] the test system is P. aeruginosa MP-7 PAO1. The assay can be described thus: CLSI broth dilution MIC determination. To be noted: Pseudomonas aeruginosa, read-out: MIC. (In broth dilution the organism is exposed to a series of concentrations in liquid medium.)
Assay [2] deals with A. baumannii MP-577 Clinical-AZT low. Briefly: CLSI broth dilution MIC determination. To be noted: Acinetobacter baumannii, read-out: MIC.
Assay [3] deals with K. pneumoniae MP-548 clinical. Briefly: CLSI broth dilution MIC determination. As to conditions: Klebsiella pneumoniae, MP548CLINICAL, read-out: MIC.
The test system of assay [4] is K. pneumoniae MP-546 Clinical-MDR. Briefly: CLSI broth dilution MIC determination. As to conditions: Klebsiella pneumoniae, read-out: MIC.
Assay [5] has as its system S. aureus MP-17 ATCCBAA-977 (BAA 977 iErm). The assay can be described thus: CLSI broth dilution MIC determination. To be noted: Staphylococcus aureus. In short, it runs like this:
(§1)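 Azithromycin and solithromycin were included as macrolide controls in many cases. MICs were determined by CLSI standard broth dilution.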

Assay [6] relates to S. aureus (MRSA) MP-513 ST-228 cErm (Clinical-cErm). The assay can be described thus: CLSI broth dilution MIC determination. As to conditions: Staphylococcus aureus, read-out: MIC. An outline of the steps:
as §1

Assay [7] relates to E. coli MP-541 clinical. The assay can be described thus: CLSI broth dilution MIC determination. To be noted: Escherichia coli, MP541CLINICAL, read-out: MIC. An outline of the steps: as §1
Assay [8] concerns E. coli MP-532 clinical-cErmB. The assay can be described thus: CLSI broth dilution MIC determination. As to conditions: Escherichia coli. In short, it runs like this: as §1
Assay [9] relates to E. coli MP-9 ATCC25922:tolC. Briefly: CLSI broth dilution MIC determination. To be noted: Escherichia coli, ATCC25922. In short, it runs like this:
as §1

The subject of assay [10] is A. baumannii MP-576 Clinical-MDR. The assay can be described thus: CLSI broth dilution MIC determination. To be noted: Acinetobacter baumannii, read-out: MIC.
The subject of assay [11] is strains of B. subtilis, E. coli, S. aureus, S. pneumoniae, and H. influenzae, including several multidrug-resistant strains. The assay can be described thus: CLSI broth dilution MIC determination, whole panel of strains. As to conditions: from MIC data, Tables B1-B13. From the text: MIC data was collected for the novel macrolides that this platform has produced against over 21 unique strains of B. subtilis, E. coli, S. aureus, S. pneumoniae, and H. influenzae, including several multidrug-resistant strains, with a special focus on macrolide resistant mechanisms (vide supra). Azithromycin (Azithro) and Solithromycin (Solithro) were included as a control macrolides in many cases. CLSI standard procedures for broth dilution MIC determination were used. […] These genotypes can be constitutive or inducible.

In assay [12] the test system is S. pneumoniae mef A genotype (first strain so labelled). Briefly: CLSI broth dilution MIC determination. As to conditions: Streptococcus pneumoniae, first strain (MP-626 UNT-038). An outline of the steps:
as §1

The term MIC denotes the lowest concentration that inhibits growth of the organism.

Values after ≈ are worked out from the molar mass of the structure shown.

Take `CC[C@H]1OC(=O)[C@@](C)(F)C(=O)[C@H](C)[C@@H](OC2OC(C)CC(N(C)C)C2O)[C@](C)(OC)C[C@@H](C)C(=O)[C@H](C)[C@H]2N(CCCCn3cc(-c4cccc(N)c4)nn3)C(=O)O[C@]12C` (stereo partly drawn) [Solithro, solithromycin, reference compound]: the MIC in assay [1] is more than 32 µg/mL; in [2], 32 µg/mL (≈ 37.9 µM); in [3], 32 µg/mL (≈ 37.9 µM); in assay [4] it was more than 32 µg/mL; in [5], 0.125 µg/mL (≈ 0.148 µM); in assay [6], more than 32 µg/mL. The MIC was 16 µg/mL (≈ 18.9 µM) in [7], more than 32 µg/mL in [8], 4 µg/mL (≈ 4.73 µM) in [9] and more than 32 µg/mL in [10].

Regarding `CC[C@H]1OC(=O)[C@@](C)(F)C(=O)[C@H](C)[C@@H](O[C@@H]2OC(C)CC(N(C)C)C2O)[C@](C)(OC)C[C@@H](C)C(=O)[C@H](C)[C@H]2N(CC#CCn3cc(-c4cccc(N)c4)nn3)C(=O)O[C@]12C` (stereo partly drawn) [FSM-100426], in assay [11], the “potency compared with solithromycin” value is on record as “more potent”. Moreover, the minimal inhibitory concentration (MIC) in assay [12] was less than 0.0312 µg/mL.

Values taken from patent publication US10633407B2, “14-membered ketolides and methods of their preparation and use” (President and Fellows of Harvard College, priority 2014, dated 2020).
